# According to publication PMC8242589, “Cardiac Safety of Kinase Inhibitors – Improving Understanding and Prediction of Liabilities in Drug Discovery Using Human Stem Cell-Derived Models” (Frontiers in Cardiovascular Medicine, 2021):
# Entries after “also recorded” stand apart in the source; their conditions may differ.
# How the values were obtained:
# [1] = test system: hSC-CMs (Cor.4U Cardiomyocytes); assay: ATP assay (CellTiter-Glo Luminescent Cell Viability Assay); type: cell-based, human; conditions: for viability at 0.3 µM / viability at 3 µM / viability at 30 µM / viability at 300 µM: Homo sapiens, Cardiomyocyte; for viability at 0.3 µM / viability at 3 µM / viability at 30 µM / viability at 300 µM / ATP: normalized to time-matched DMSO control
# Procedure: Cor.4U® Cardiomyocytes (Ncardia, Netherlands) were cultured in 96-well plates at density of 25,000 – 30,000 cells per well. Cells were maintained at 5% CO2 and 37 °C for 4 days prior to experiments. The cell culture medium (Cor4U® Complete Culture Medium, cat# Ax-M-HC250E, Axiogenesis AG, Cologne, Germany) was changed every 24 h and was replaced by serum-free BMCC medium (cat# Ax-M-BMCC259, Axiogenesis AG, Cologne, Germany) 12 h prior to drug addition.
# The CellTiter-Glo Luminescent Cell Viability Assay (cat# G7572, Promega, USA) was performed for quantification of the cellular ATP concentration according to manufacturer's instructions. Plates were shaken for 2 min in the dark, incubated at ambient temperature for 10 min before measuring luminescence (Integration time 0.1 seconds per well) with Luminescence Counter (Synergy H1, BioTek Instruments, Inc., Winooski, Vermont). The measured ATP concentration values were normalized to the time-matched DMSO controls. Data are representative of at least three replicates per concentration.
# [2] = test system: hSC-CMs (Cor.4U Cardiomyocytes); assay: CardioExcyte 96 impedance and EFP recording (beating rate, base impedance); type: cell-based, human; conditions: for activity at 0.3 µM / activity at 3 µM / activity at 30 µM / activity at 300 µM: Homo sapiens, Cardiomyocyte; for activity at 0.3 µM / activity at 3 µM / activity at 30 µM / activity at 300 µM / BR / Base Imp: vs baseline before drug (taken as 100%); for Effect on base impedance, in words: hSC-CMs, 2 and 24 h
# Procedure: Cor.4U® Cardiomyocytes (Ncardia, Netherlands) were cultured in 96-well plates at density of 25,000 – 30,000 cells per well. Cells were maintained at 5% CO2 and 37 °C for 4 days prior to experiments.
# Functional monitoring of cardiomyocytes was done using CardioExcyte® 96 (Nanion technologies GmbH, Germany). Extracellular field potential (EFP) and impedance signals were recorded from hSC-CMs that formed monolayers in the wells of the NSP-96 plate. Beating Rate (BR, per minute) was calculated as the reciprocal of the inter-spike interval (ISI) in EFP signal. Impedance signals from spontaneously beating hSC-CMs were recorded with a sampling rate of 1 ms (1 kHz), and EFP data were collected at 0.1ms (10 kHz). Data acquisition was controlled by CardioExcyte® 96 Control software as previously described ([22]). The functional parameters recorded in each concentration of test items were compared to the base line values before drug addition (taken as 100%) to define fractional change.
# ROCK1 = conditions: ref [36] (RKI-1447), [37], [38] (Fasudil), [39]–[43] (Y-27632), [44], [45] (GSK-429286); read-out: Target IC50 ROCK1; cited from earlier work
# [3] = test system: hSC-CMs (Cor.4U Cardiomyocytes); assay: Apoptosis assay (CellEvent Caspase-3/7 Green, IncuCyte ZOOM kinetics over 24 h); type: cell-based, human; set-up: key to Caspase / Caspase MEAN: % of time-matched vehicle control (green object area)
# Procedure: Cor.4U® Cardiomyocytes ([…], Netherlands) were cultured in 96-well plates at density of 25,000 - 30,000 cells per well. Cells were maintained at 5% CO2 and 37 °C for 4 days prior to experiments. […] The plates were incubated 2 h before compound treatment in the IncuCyte ZOOM (ESSEN BioScience, Ann Arbor, Michigan) to set a baseline before the 24 h compound treatment. […] Imaging was done using 10x microscope objective of the IncuCyteZOOM with four images per well-taken every 2 h in both phase-contrast and green fluorescence. The fluorescent nuclear signal of the apoptotic cells was separated from background with the integrated object counting algorithm, adjusted to cardiomyocytes, and the calculated total green object area per well (μm^2/well) plotted against time. Data were normalized to those of the time-matched vehicle control. Data were representative of at least three replicates per concentration.
# [4] = Homo sapiens, Cardiomyocyte, 2h, normalized to time-matched vehicle control
# [5] = Homo sapiens, Cardiomyocyte, 24h, normalized to time-matched vehicle control
compound,measurement,setting,value
O=S(=O)(c1cccc2cnccc12)N1CCCNCC1 [Fasudil],viability at 0.3 µM,[1]; 2h,87%
same,viability at 0.3 µM,[1]; 24h,96%
same,viability at 3 µM,[1]; 2h,91%
same,viability at 3 µM,[1]; 24h,102%
same,viability at 30 µM,[1]; 2h,97%
same,viability at 30 µM,[1]; 24h,100%
same,viability at 300 µM,[1]; 2h,101%
same,viability at 300 µM,[1]; 24h,91%
same,Reduction in the ATP content,[1]; top concentration,9%
same,activity at 0.3 µM,"[2]; 2h, read-out: BR",100%
same,activity at 0.3 µM,"[2]; 2h, read-out: Base Imp",87%
same,activity at 0.3 µM,"[2]; 24h, read-out: BR",97%
same,activity at 0.3 µM,"[2]; 24h, read-out: Base Imp",87%
same,activity at 3 µM,"[2]; 2h, read-out: BR",97%
same,activity at 3 µM,"[2]; 2h, read-out: Base Imp",86%
same,activity at 3 µM,"[2]; 24h, read-out: BR",100%
same,activity at 3 µM,"[2]; 24h, read-out: Base Imp",85%
same,activity at 30 µM,"[2]; 2h, read-out: BR",96%
same,activity at 30 µM,"[2]; 2h, read-out: Base Imp",82%
same,activity at 30 µM,"[2]; 24h, read-out: BR",94%
same,activity at 30 µM,"[2]; 24h, read-out: Base Imp",71%
same,activity at 300 µM,"[2]; 2h, read-out: BR",70%
same,activity at 300 µM,"[2]; 2h, read-out: Base Imp",65%
same,activity at 300 µM,"[2]; 24h, read-out: BR",110%
same,activity at 300 µM,"[2]; 24h, read-out: Base Imp",44%
same,"Effect on base impedance, in words",[2],concentration-and time-dependent decrease in base impedance; also recorded: concentration-dependent effects
same,Inhibition of beating rate,"[2]; highest test concentration, after 2 h of incubation",~ 30%
same,activity at 0.3 µM,[3]; [4],136%
same,activity at 0.3 µM,[3]; [5],80%
same,activity at 3 µM,[3]; [4],119%
same,activity at 3 µM,[3]; [5],83%
same,activity at 30 µM,[3]; [4],107%
same,activity at 30 µM,[3]; [5],138%
same,activity at 300 µM,"[3]; Homo sapiens, Cardiomyocyte, 300 µM, 2h, normalized to time-matched vehicle control",97%
same,Time of notable raise in the caspase-3/7 activity,[3]; highest test concentrations only,12 to 18 h
O=C(NCc1cccc(O)c1)Nc1nc(-c2ccncc2)cs1 [RKI-1447],ATP,"[1]; 0.01 µM, 2h",98
same,ATP,"[1]; 0.01 µM, 24h",102
same,ATP,"[1]; 0.1 µM, 2h",99
same,ATP,"[1]; 0.1 µM, 24h",99
same,ATP,"[1]; 1 µM, 2h",101
same,ATP,"[1]; 1 µM, 24h",98
same,ATP,"[1]; 10 µM, 2h",104
same,ATP,"[1]; 10 µM, 24h",102
same,BR,"[2]; 0.01 µM, 2h",107
same,Base Imp,"[2]; 0.01 µM, 2h",87
same,BR,"[2]; 0.01 µM, 24h",100
same,Base Imp,"[2]; 0.01 µM, 24h",88
same,BR,"[2]; 0.1 µM, 2h",106
same,Base Imp,"[2]; 0.1 µM, 2h",86
same,BR,"[2]; 0.1 µM, 24h",101
same,Base Imp,"[2]; 0.1 µM, 24h",81
same,BR,"[2]; 1 µM, 2h",110
same,Base Imp,"[2]; 1 µM, 2h",80
same,BR,"[2]; 1 µM, 24h",107
same,Base Imp,"[2]; 1 µM, 24h",69
same,BR,"[2]; 10 µM, 2h",112
same,Base Imp,"[2]; 10 µM, 2h",68
same,BR,"[2]; 10 µM, 24h",115
same,Base Imp,"[2]; 10 µM, 24h",65
same,"Effect on base impedance, in words",[2],concentration-and time-dependent decrease in base impedance; also recorded: concentration-dependent effects
same,IC50,ROCK1,14.5 nM
same,Caspase,"[3]; 0.01 µM, 2h, normalized to time-matched vehicle control",116
same,Caspase,"[3]; 0.01 µM, 24h, normalized to time-matched vehicle control",115
same,Caspase,"[3]; 0.1 µM, 2h, normalized to time-matched vehicle control",117
same,Caspase,"[3]; 0.1 µM, 24h, normalized to time-matched vehicle control",115
same,Caspase,"[3]; 1 µM, 2h, normalized to time-matched vehicle control",90
same,Caspase,"[3]; 1 µM, 24h, normalized to time-matched vehicle control",110
same,Caspase,"[3]; 10 µM, 2h, normalized to time-matched vehicle control",93
same,Caspase,"[3]; 10 µM, 24h, normalized to time-matched vehicle control",129
